Experimental data from patent US20250352500A1, “USE OF PHENOLIC ACIDS DERIVATIVES IN TREATING ISCHEMIC STROKE” (LANZHOU UNIVERSITY, priority 2022, published 2025).

Key:
Type in all cases: in vivo, male C57/BL mice
iNOS = assay: RT-qPCR of iNOS mRNA in brain tissue; details: 72 h, three days of administration, compound 2 100 mg/kg, compound 1 50 mg/kg, P<0.05
Protocol: (§1) Grouping and administration method: Male C57/BL mice weighing 23±1 g were randomly divided into sham operation group (SHAM), model group (MCAO), compound 2 group (100 mg/kg), and compound 1 group (50 mg/kg), with 10 mice in each group. Mice in the SHAM group underwent vascular isolation, but no […] was administered, and no treatment was given before or after surgery. The model group mice were constructed with MCAO models and were not treated before and after surgery. The treatment group was treated with compound 2 or compound 1 on the basis of the model group. Mice with a neurological score of 0 after reperfusion and those that died before 72 hours post-surgery were excluded. […]
(§2) To investigate the effect of compounds on the expression of inflammatory factors after ischemia-reperfusion, this study used immunofluorescence experiments to observe the expression of TNF-α, IL-1β, IL-6, iNOS, and COX2 proteins in brain tissue. […] The concentrations of TNF-α, IL-1β, and IL-6 in brain homogenate were detected by enzyme-linked immunosorbent assay (ELISA), and the expression level of TNF-α protein in brain tissue was detected by Western blot.
(§3) After 72 hours of ischemia-reperfusion, the mRNA expression levels of TNF-α, IL-1β, IL-6, iNOS, and COX2 in brain tissue were detected and analyzed by RT-qPCR. […]

GFAP = GFAP protein Western blot in brain tissue; details: for GFAP protein expression reduced compared with MCAO group: 72 h ischemia-reperfusion, three days of administration, compound 2 100 mg/kg, compound 1 50 mg/kg
Protocol: (§4) Grouping and administration method: Male C57/BL mice weighing 23±1 g were randomly divided into sham operation group (SHAM), model group (MCAO), compound 2 group (100 mg/kg), and compound 1 group (50 mg/kg), with 10 mice in each group. Mice in the SHAM group underwent vascular isolation, but no […] was administered, and no treatment was given before or after surgery. The model group mice were constructed with MCAO models and were not treated before and after surgery. The treatment group was treated with compound 2 or compound 1 on the basis of the model group. Mice with a neurological score of 0 after reperfusion and those that died before 72 hours post-surgery were excluded. The administration time for animal behavior tests was seven times at 0 h, 1 day, 2 days, 3 days, 4 days, 5 days, and 6 days after reperfusion, while the administration time for other experiments was three times at 0 h, 1 day, and 2 days after reperfusion. The drug was administered through the tail vein, and the sham operation group and model group were given equal amounts of saline.
After 72 hours of ischemia-reperfusion, the protein expression level of GFAP, a marker of astrocytes in brain tissue, was detected with Western blot. The representative Western blot (WB) images of GFAP protein expression in the brain tissues of the sham operation group (SHAM), model group (MCAO), compound 2 group, and compound 1 group are shown in FIG. 6A, and the quantitative statistical results are shown in FIG. 6B. […] In this experiment, β-actin was used as an internal reference protein. n=3, data are mean±SEM, analyzed using one-way ANOVA and Tukey's HSD test. *P<0.05, **P<0.01, ***P<0.001. ^#P<0.05, ^##P<0.01, ^###P<0.001. * indicates comparison with the SHAM group, # indicates comparison with the compound 2 group.

TNF-α [1] = assay: TNF-α immunofluorescence in brain tissue; details: 72 h ischemia-reperfusion; compound 2 100 mg/kg, compound 1 50 mg/kg; MCAO group 361±48; mean±SEM, n=3
Protocol: as §1, §2
After 72 hours of ischemia-reperfusion, the expression changes of inflammatory factors such as TNF-α, IL-1β, IL-6, iNOS, and COX2 in brain regions were analyzed by immunofluorescence staining. […]

iba1 = iba1 immunofluorescence in brain tissue (microglia); details: 72 h ischemia-reperfusion, three days of administration; compound 2 100 mg/kg, compound 1 50 mg/kg; MCAO group 303±23; mean±SEM, n=3
Protocol: as §1
Microglia are resident phagocytic cells in the nervous system and are the primary defense system for stress and injury in central nervous cells. […] To investigate whether the compound has an effect on the activation and proliferation of microglia in the ischemia-reperfusion model, this study used immunofluorescence experiments to detect the fluorescence expression of iba1 in the brain tissues of the sham operation group (SHAM), model group (MCAO), compound 2 group, and compound 1 group. Then, the expression level of iba1 in microglia in brain tissue was detected by Western blot. […]

TNF-α [2] = assay: RT-qPCR of TNF-α mRNA in brain tissue; details: 72 h, three days of administration, compound 2 100 mg/kg, compound 1 50 mg/kg, P<0.05
Protocol: as §1, §2, §3

TNF-α [3] = assay: TNF-α protein Western blot in brain tissue; details: 72 h; for TNF-α protein expression reduced compared with MCAO group: three days of administration, compound 2 100 mg/kg, compound 1 50 mg/kg, P<0.001
Protocol: as §4, §2
After 72 hours of ischemia-reperfusion, the expression level of TNF-α protein in brain tissue was detected by Western blot. […] In this experiment, β-actin was used as an internal reference protein. n=3, data are presented as mean±SEM, analyzed with one-way ANOVA, and subjected to Tukey's HSD test. *P<0.05, **P<0.01, ***P<0.001. ^#P<0.05, ^##P<0.01, ^###P<0.001. * indicates a comparison with the SHAM group, ^# indicates a comparison with the compound 2 group.

MCAO model mice = assay: Body weight change after ischemia-reperfusion
Protocol: as §4
At the same time, the weight change and survival rate of mice after ischemia-reperfusion were analyzed.

Row | SMILES | iNOS mRNA expression compared with MCAO group (iNOS) | GFAP protein expression reduced compared with MCAO group (GFAP) | Number of TNF-α-positive cells (TNF-α [1]) | Number of iba1-positive cells (iba1) | TNF-α mRNA expression compared with MCAO group (TNF-α [2]) | TNF-α protein expression reduced compared with MCAO group (TNF-α [3]) | Body weight compared with the compound 2 group (MCAO model mice; 7th day after reperfusion, compound 1 50 mg/kg vs compound 2 100 mg/kg, P<0.05) | GFAP protein expression reduced compared with the compound 1 group (GFAP; 72 h, compound 2 100 mg/kg vs compound 1 50 mg/kg, P<0.05) | TNF-α protein expression decreased compared with the compound 1 group (TNF-α [3]; compound 2 100 mg/kg vs compound 1 50 mg/kg, P<0.05) | Body weight compared with MCAO group (MCAO model mice; 7th day of reperfusion, 100 mg/kg tail vein)
1 | O=C(O)c1cc(O)ccc1O [compound 1] | significantly reduced | 25±10% | 244±36 /mm^2 | 200±12 /mm^2 | significantly reduced | 20±10% | significantly decreased | – | – | –
2 | O=C(O)c1cc(OP(=O)(O)O)ccc1OP(=O)(O)O [compound 2] | significantly reduced | 43±12% | 140±35 /mm^2 | 148±40 /mm^2 | significantly reduced | 40±12% | – | 45±10% | 31±20% | inhibited the decrease in body weight
